Values quoted from earlier work as cited in paper PMC9710334 (BMJ Open Gastroenterology, 2022).

Columns and labels:
patients with PBC = settings: approximately ref 1 3; cited from earlier work
treated patients = treated patients ref 37 38; cited from earlier work

In the case of `C[C@H](CCC(=O)O)[C@H]1CC[C@H]2[C@@H]3[C@@H](O)C[C@@H]4C[C@H](O)CC[C@]4(C)[C@H]3CC[C@]12C` [UDCA, ursodeoxycholic acid], the “patients without an optimal biochemical response” value (patients with PBC) is listed as 30%–40%.

B1: vantictumab: Wnt pathway inhibitor (antibody, chains of the INN, looked up, V domains shown)
VH: EVQLVESGGGLVQPGGSLRLSCAASGFTFSHYTLSWVRQAPGKGLEWVSVISGDGSYTYYADSVKGRFTISSDNSKNTLYLQMNSLRAEDTAVYYCARNFIKYVFANWGQGTLVTVSS
VL: DIELTQPPSVSVAPGQTARISCSGDNIGSFYVHWYQQKPGQAPVLVIYDKSNRPSGIPERFSGSNSGNTATLTISGTQAEDEADYYCQSYANTLSLVFGGGTKLTVL
In the case of B1, the “risk for fragility fractures” value (treated patients) is given as “increased risk for fragility fractures”.
